Test: xn = mol fraction of the nth substance listed
Conditions: 100 kPa, Liquid; for viscosity: Falling or rolling sphere viscometry; for mass density: Vibrating tube method

CCCC[N+]1(C)CCCCC1.N#C[N-]C#N [1-butyl-1-methylpiperidinium dicyanamide] + O
Conditions | mass density [kg/m3] | viscosity [mPa·s]
298.15 K, x1 = 0.0936 | 1007.95 | 6.144
298.15 K, x1 = 0.1748 | 1011.38 | 10.16
298.15 K, x1 = 0.2651 | 1013.31 | 16.96
298.15 K, x1 = 0.3581 | 1014.27 | 24.65
298.15 K, x1 = 0.4952 | 1014.9 | 36.93
298.15 K, x1 = 0.6246 | 1015.36 | 49.82
298.15 K, x1 = 0.7878 | 1015.65 | 72.53
298.15 K, x1 = 0.9216 | 1015.91 | 103.3
298.15 K, x1 = 1 | 1016.13 | 123.3
303.15 K, x1 = 0.0936 | 1004.63 | 5.247
303.15 K, x1 = 0.1748 | 1008.21 | 8.56
303.15 K, x1 = 0.2651 | 1010.2 | 14.05
303.15 K, x1 = 0.3581 | 1011.26 | 20.16
303.15 K, x1 = 0.4952 | 1012.13 | 29.68
303.15 K, x1 = 0.6246 | 1012.52 | 40.79
303.15 K, x1 = 0.7878 | 1012.82 | 57.58
303.15 K, x1 = 0.9216 | 1012.88 | 79.12
303.15 K, x1 = 1 | 1012.98 | 92.97
308.15 K, x1 = 0.0936 | 1001.56 | 4.529
308.15 K, x1 = 0.1748 | 1005.06 | 7.3
308.15 K, x1 = 0.2651 | 1007.08 | 11.81
308.15 K, x1 = 0.3581 | 1008.27 | 16.78
308.15 K, x1 = 0.4952 | 1009.31 | 24.59
308.15 K, x1 = 0.6246 | 1009.93 | 32.52
308.15 K, x1 = 0.7878 | 1010.41 | 46
308.15 K, x1 = 0.9216 | 1010.57 | 64.15
308.15 K, x1 = 1 | 1010.65 | 75.58
313.15 K, x1 = 0.0936 | 998.43 | 3.946
313.15 K, x1 = 0.1748 | 1001.86 | 6.291
313.15 K, x1 = 0.2651 | 1004.02 | 10.05
313.15 K, x1 = 0.3581 | 1005.25 | 14.16
313.15 K, x1 = 0.4952 | 1006.34 | 20.59
313.15 K, x1 = 0.6246 | 1007.01 | 27.94
313.15 K, x1 = 0.7878 | 1007.53 | 38.87
313.15 K, x1 = 0.9216 | 1007.8 | 51.99
313.15 K, x1 = 1 | 1007.92 | 60.93
318.15 K, x1 = 0.0936 | 995.26 | 3.467
318.15 K, x1 = 0.1748 | 998.67 | 5.47
318.15 K, x1 = 0.2651 | 1000.91 | 8.651
318.15 K, x1 = 0.3581 | 1002.25 | 12.11
318.15 K, x1 = 0.4952 | 1003.45 | 17.45
318.15 K, x1 = 0.6246 | 1004.15 | 23.32
318.15 K, x1 = 0.7878 | 1004.74 | 32.26
318.15 K, x1 = 0.9216 | 1005.06 | 42.71
318.15 K, x1 = 1 | 1005.2 | 49.79
323.15 K, x1 = 0.0936 | 992.05 | 3.072
323.15 K, x1 = 0.1748 | 995.43 | 4.8
323.15 K, x1 = 0.2651 | 997.8 | 7.52
323.15 K, x1 = 0.3581 | 999.24 | 10.45
323.15 K, x1 = 0.4952 | 1000.53 | 14.98
323.15 K, x1 = 0.6246 | 1001.31 | 19.5
323.15 K, x1 = 0.7878 | 1001.95 | 27.35
323.15 K, x1 = 0.9216 | 1002.33 | 35.62
323.15 K, x1 = 1 | 1002.47 | 41.31
328.15 K, x1 = 0.0936 | 988.8 | 2.741
328.15 K, x1 = 0.1748 | 992.22 | 4.249
328.15 K, x1 = 0.2651 | 994.68 | 6.592
328.15 K, x1 = 0.3581 | 996.18 | 9.141
328.15 K, x1 = 0.4952 | 997.63 | 12.99
328.15 K, x1 = 0.6246 | 998.47 | 16.43
328.15 K, x1 = 0.7878 | 999.19 | 23.47
328.15 K, x1 = 0.9216 | 999.6 | 30.08
328.15 K, x1 = 1 | 999.77 | 34.72
333.15 K, x1 = 0.0936 | 985.51 | 2.461
333.15 K, x1 = 0.1748 | 988.96 | 3.788
333.15 K, x1 = 0.2651 | 991.37 | 6.05
333.15 K, x1 = 0.3581 | 993.2 | 8.041
333.15 K, x1 = 0.4952 | 994.75 | 11.37
333.15 K, x1 = 0.6246 | 995.66 | 13.93
333.15 K, x1 = 0.7878 | 996.46 | 20.41
333.15 K, x1 = 0.9216 | 996.9 | 25.64
333.15 K, x1 = 1 | 997.08 | 29.45
338.15 K, x1 = 0.0936 | 982.59 | 2.223
338.15 K, x1 = 0.1748 | 985.7 | 3.407
338.15 K, x1 = 0.2651 | 988.38 | 5.181
338.15 K, x1 = 0.3581 | 990.24 | 7.12
338.15 K, x1 = 0.4952 | 991.9 | 10.04
338.15 K, x1 = 0.6246 | 992.85 | 12.9
338.15 K, x1 = 0.7878 | 993.65 | 17.17
338.15 K, x1 = 0.9216 | 994.16 | 21.35
338.15 K, x1 = 1 | 994.39 | –
343.15 K, x1 = 0.0936 | 979.99 | 2.021
343.15 K, x1 = 0.1748 | 982.41 | 3.088
343.15 K, x1 = 0.2651 | 984.88 | 4.682
343.15 K, x1 = 0.3581 | 986.93 | 6.355
343.15 K, x1 = 0.4952 | 988.84 | 8.928
343.15 K, x1 = 0.6246 | 990.06 | 11.72
343.15 K, x1 = 0.7878 | 990.92 | 15.74
343.15 K, x1 = 0.9216 | 991.45 | 19.52
343.15 K, x1 = 1 | 991.72 | 21.98
